Data as given in patent publication US20160120831A1, “INCREASE OF PROTEIN SYNTHESIS AMELIORATES SYNAPTOPATHY-RELATED NEUROLOGICAL DISORDERS” (Academia Sinica, priority 2014, published 2016).

Key:
VCP^R95G-neurons = experiment: Azidohomoalanine (AHA) labelling of protein synthesis in neurons transfected with wild-type or mutant VCP; type: cell-based, mouse; settings: leucine for 3 days, AHA label 1 hour
Procedure: FIG. 1A are confocal microscopy images of neurons that are respectively transfected with specified plasmids respectively expressing wild-type (WT) VCP and mutant VCP, and treated with 2.5 mM leucine for three days and labeled with azidohomoalanine (AHA) for 1 hour according to Example 1 of the present disclosure; the transfected neurons are either pointed by arrows or outlined; scale bar presents 20 μm; FIG. 1B is a histogram depicting the relative AHA intensity of neurons that were respectively transfected with specified plasmids, and treated with different concentrations of leucine for three days and labeled with AHA for 1 hour according to Example 1 of the present disclosure; data from three independent experiments are presented as mean plus standard error of mean (SEM); ns, no significance; ***, P<0.001; For primary neuronal culture, pregnant mice were sacrificed by subjecting to CO2 inhalation, and the fetal pups were isolated and sacrificed by decapitation. Then, cortical neurons were dissociated from the brains of embryonic mice of 18 days. The obtained neurons were cultured in Neurobasal medium, supplemented with 2% B27 supplement, 0.5 mM glutamine, and 12.5 μM glutamate in the density of 260,000 cells/cm^2. The cells were kept in a 5% CO2-humidified chamber at 37° C. […]

[1] = test system: VCP^R95G-expressing neurons; experiment: Dendritic spine density of neurons transfected with VCP^WT or VCP^R95G plasmids; type: cell-based, mouse
Procedure: For primary neuronal culture, pregnant mice were sacrificed by subjecting to CO2 inhalation, and the fetal pups were isolated and sacrificed by decapitation. Then, cortical neurons were dissociated from the brains of embryonic mice of 18 days. The obtained neurons were cultured in Neurobasal medium, supplemented with 2% B27 supplement, 0.5 mM glutamine, and 12.5 μM glutamate in the density of 260,000 cells/cm^2. The cells were kept in a 5% CO2-humidified chamber at 37° C. The wild-type VCP gene was amplified by PCR using a forward primer having a nucleotide sequence of SEQ ID NO: 1, and a reverse primer having a nucleotide sequence of SEQ ID NO: 2. The amplified DNA segment was subsequently constructed in to GW1-Myc plasmid. To generate the […] mutation, a pair of primers respectively having nucleotide sequences of SEQ ID NOs: 3 and 4 were used in site-directed mutagenesis with wild-type VCP construct as a template. […] Images of neurons were recorded with a confocal microscope (LSM700, Zeiss) equipped with a Plan-Apochromat 63×NA 1.4 oil objective lens (Zeiss) and captured with Zen acquisition and analysis software (Zeiss) at 20-22° C. as a Z-series of 5-12 sections spaced 0.6-0.8 μm apart. […] To analyze dendritic spine density, the spine number of each dendrite fragment about 20 μm in length, which started from a point 20 μm away from the soma, was manually counted using Image J software. […]

Nf1^+/- neurons = experiment: Dendritic spine density of wild-type or Nf1^+/- neurons; type: cell-based, mouse
Procedure: For primary neuronal culture, pregnant mice were sacrificed by subjecting to CO2 inhalation, and the fetal pups were isolated and sacrificed by decapitation. Then, cortical neurons were dissociated from the brains of embryonic mice of 18 days. The obtained neurons were cultured in Neurobasal medium, supplemented with 2% B27 supplement, 0.5 mM glutamine, and 12.5 μM glutamate in the density of 260,000 cells/cm^2. The cells were kept in a 5% CO2-humidified chamber at 37° C. Images of neurons were recorded with a confocal microscope (LSM700, Zeiss) equipped with a Plan-Apochromat 63×NA 1.4 oil objective lens (Zeiss) and captured with Zen acquisition and analysis software (Zeiss) at 20-22° C. as a Z-series of 5-12 sections spaced 0.6-0.8 μm apart. The Z-series was then projected into single images. The images were processed with Photoshop (Adobe), with minimal adjustment of brightness or contrast applied to the whole images. To analyze dendritic spine density, the spine number of each dendrite fragment about 20 μm in length, which started from a point 20 μm away from the soma, was manually counted using Image J software. As dendritic spine formation is highly sensitive to culture conditions, each experiment was repeated using the same lot of culture medium. […] To minimize the effects of bias, some of the critical experiments were performed blind by relabeling the samples with the assistance of other lab members.

Nf1^+/- mice [2] = experiment: Golgi staining of mouse brains for dendritic spine density; type: in vivo; settings: Nf1^+/- mice after taking leucine solution
SOD1-G93A mice = experiment: Animal model of amyotrophic lateral sclerosis (ALS), survival; type: in vivo, mouse; settings: leucine supplement water 80 mg/day from 120 days old
Procedure: To examine the effect of leucine on ALS, 120 days old mice (wild-type or SOD1-G93A mice) were provided with normal water or leucine supplement water (80 mg/day) until animal died.
SOD1-G93A mouse is an animal model widely used in the art for ALS study. In this example, the SOD1-G93A transgenic mice were used to evaluate the effect of leucine on ALS.

Nf1^+/- mice [3] = experiment: Contextual fear conditioning; type: in vivo, mouse
Procedure: To examine the effect of leucine on contextual fear memory, mice (wild-type or Nf1^+/− mice) were provided with normal water or leucine supplement water (0.9-3.6 g/Kg) for 7 days prior to testing, which was continued through the entire behavioral task. Mice were subjected to contextual fear conditioning, which was carried out for 6 days with one trial per day. For the first 5 days, mice were placed into the conditioning chamber for 60 sec, then a single foot shock was performed (0.4 mA intensity for 2 sec). After the foot shock, mice were left in the chamber for another 120 sec before returning to their home cage. On the 6th day, mice were placed into the conditioning chamber for 180 sec without foot shock. Freezing responses during the first 10-60 sec of each trial were videotaped and measured using the FreezeScan 2.0 system (CleverSys). Nf1^+/− mice were used to study the effect of leucine on learning and memory, in which the effect was assessed by contextual fear conditioning as described in Materials and Methods. Briefly, wild-type or Nf1^+/− mice were administered water or leucine, as a supplement in water, for 7 days and then subjected to contextual fear conditioning (FIG. 4A). There was no difference in drinking preference for water or leucine solution between WT and Nf1^+/− mice, nor was there difference in weight gain between the two mice (FIG. 4B).

ATL-1^R95G = experiment: Dendritic spine density of neurons expressing wild-type or mutant ATL1; type: cell-based, mouse; settings: mutant ATL1 neurons; 2.5 mM or 5 mM leucine, 3 days; P<0.001
Procedure: For primary neuronal culture, pregnant mice were sacrificed by subjecting to CO2 inhalation, and the fetal pups were isolated and sacrificed by decapitation. Then, cortical neurons were dissociated from the brains of embryonic mice of 18 days. The obtained neurons were cultured in Neurobasal medium, supplemented with 2% B27 supplement, 0.5 mM glutamine, and 12.5 μM glutamate in the density of 260,000 cells/cm^2. The cells were kept in a 5% CO2-humidified chamber at 37° C. Mouse Atl1 was amplified by PCR with a primer set respectively having nucleotide sequences of SEQ ID NOs: 5 and 6. The amplified products were subcloned into the Gw1-Myc2b vector. The […] mutant was generated by site directed mutagenesis with a primer set respectively having nucleotide sequences of SEQ ID NOs: 7 and 8. Images of neurons were recorded with a confocal microscope (LSM700, Zeiss) equipped with a Plan-Apochromat 63×NA 1.4 oil objective lens (Zeiss) and captured with Zen acquisition and analysis software (Zeiss) at 20-22° C. as a Z-series of 5-12 sections spaced 0.6-0.8 μm apart. The Z-series was then projected into single images. […] To analyze dendritic spine density, the spine number of each dendrite fragment about 20 μm in length, which started from a point 20 μm away from the soma, was manually counted using Image J software. […]

For `CC(C)C[C@H](N)C(=O)O` [leucine], which AHA intensity (VCP^R95G-neurons) is on record?
Its AHA intensity is “dose-dependently increased the AHA intensity”.

What about the “protrusion number of dendrite fragment” value ([1]; VCP^R95G-dendrite fragment, leucine 2 mM (P<0.01) and 2.5 mM (P<0.001) vs basal, 3 days) of the same compound?
The value was “significantly increased the protrusion number”.

And the “protrusion number of dendrite fragment” value ([1]; VCP^WT-dendrite fragment, leucine for 3 days)?
Its value is “did not produce obvious effect”.

And the “protrusion number versus wild-type neurons” value (Nf1^+/- neurons; Nf1^+/- neurons, 2.5 mM leucine)?
The value was “equal to that of wild-type neurons”.

And the “dendritic spine formation / dendritic spine number” value (Nf1^+/- neurons; Nf1^+/- neurons, leucine for 3 days)?
The value was “significantly ameliorated the defect in dendritic spine formation”.

What about the number of protrusions (Nf1^+/- neurons; wild-type dendrite fragment, leucine for 3 days) of the same compound?
Its number of protrusions is “did not further raise the number of protrusions”.

And the “dendritic spine density in brain” value (Nf1^+/- mice [2])?
The value was “increase in dendritic spine density”.

And the percentage of survival (SOD1-G93A mice)?
The percentage of survival was “significantly increased the percentage of survival”.

What about the mean survival time (SOD1-G93A mice; control mice 147.3±3.84 days) of the same compound?
Its mean survival time is 172.0 ± 3.96 days.

And the “freezing responses versus WT mice” value (Nf1^+/- mice [3]; Nf1^+/- mice after leucine administration)?
Its value is “comparable to those of WT mice”.

What about the “associative memory (freezing response)” value (Nf1^+/- mice [3]; Nf1^+/- mice, leucine supplement water 0.9-3.6 g/Kg, oral) of the same compound?
The value was “significantly increase the associative memory”.

What about the “fear memory (freezing response)” value (Nf1^+/- mice [3]; wild-type mice, leucine supplement water 0.9-3.6 g/Kg, oral) of the same compound?
The value was “did not further enhance the fear memory”.

And the dendritic spine number (ATL-1^R95G)?
The dendritic spine number was “significantly increased the dendritic spine number”.
